A word on the EC50: it is the midpoint of the concentration-response curve.

Peptide text beside a SMILES is read from it.

One assay relates to WT MEFs. Nature of the assay: cells. Conditions: read-out: EC50 for inducing fusion (Mito AR); WT MEFs, mitochondrial aspect ratio. The source says:
Next, it was visually examined if MASM7 could induce mitochondrial fusion in MEFs, using mitochondrial aspect ratio (mitochondrial length/width, reflecting fusion) as a readout. […] (FIG. 5).
For `CC[C@H](C)[C@H](NC(=O)CNC(=O)[C@H](CCCNC(=N)N)NC(=O)[C@@H](NC(=O)[C@H](CCC(=O)O)NC(=O)[C@H](C)NC(=O)[C@@H](NC(=O)[C@@H](N)CCC(N)=O)[C@@H](C)CC)C(C)C)C(=O)N[C@@H](CCSC)C(=O)N[C@@H](CC(=O)O)C(=O)N[C@@H](CO)C(=O)N[C@@H](CC(C)C)C(=O)N[C@@H](Cc1c[nH]cn1)C(=O)N[C@@H](CCSC)C(=O)N[C@@H](C)C(=O)N[C@@H](C)C(=O)N[C@@H](CCCNC(=N)N)C(=O)NCC(=O)NCC(=O)N[C@@H](Cc1ccc(O)cc1)C(=O)NCC(=O)N[C@@H](CCCNC(=N)N)C(=O)N[C@@H](CCCCN)C(=O)N[C@@H](CCCCN)C(=O)N[C@@H](CCCNC(=N)N)C(=O)N[C@@H](CCCNC(=N)N)C(=O)N[C@@H](CCC(N)=O)C(=O)N[C@@H](CCCNC(=N)N)C(=O)N[C@@H](CCCNC(=N)N)C(=O)N[C@@H](CCCNC(=N)N)C(=O)O` [367-384 Gly, reference compound] (H-QIAEVRGIMDSLHMAARGGYGRKKRRQRRR-OH), the EC50 was determined as 340 nM.

Another assay has as its target T1, human Mfn2 (Homo sapiens, UniProt O95140).
T1 construct: expressed in transfected cells; host or cells: HEK 293T
T1 sequence (O95140 1-757): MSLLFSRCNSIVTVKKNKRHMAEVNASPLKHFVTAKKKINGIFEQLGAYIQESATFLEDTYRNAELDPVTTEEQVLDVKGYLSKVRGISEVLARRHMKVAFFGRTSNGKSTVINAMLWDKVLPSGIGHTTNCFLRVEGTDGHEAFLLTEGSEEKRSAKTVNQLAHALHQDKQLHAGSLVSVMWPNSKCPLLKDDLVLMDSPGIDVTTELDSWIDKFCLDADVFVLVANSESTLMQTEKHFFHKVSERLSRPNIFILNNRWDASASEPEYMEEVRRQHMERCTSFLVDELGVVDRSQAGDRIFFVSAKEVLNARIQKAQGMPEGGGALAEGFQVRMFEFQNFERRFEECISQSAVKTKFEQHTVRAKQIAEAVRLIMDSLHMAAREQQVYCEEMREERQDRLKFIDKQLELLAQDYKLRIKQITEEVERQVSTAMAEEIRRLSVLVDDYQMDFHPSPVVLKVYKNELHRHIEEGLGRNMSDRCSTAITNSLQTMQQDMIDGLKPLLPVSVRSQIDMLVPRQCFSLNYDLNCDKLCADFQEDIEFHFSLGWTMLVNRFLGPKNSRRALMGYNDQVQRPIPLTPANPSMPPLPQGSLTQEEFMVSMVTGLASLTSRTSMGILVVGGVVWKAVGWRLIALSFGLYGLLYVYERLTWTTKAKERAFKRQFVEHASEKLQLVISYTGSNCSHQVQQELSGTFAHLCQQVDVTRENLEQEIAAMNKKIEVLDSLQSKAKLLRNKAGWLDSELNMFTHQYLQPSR
As to the kind of experiment: FRET-based Mfn2 biosensor (wild type) in HEK 293T cells. It is filed as cell-based. Also noted: concentration or dose not given beside the values. The note with it: WT FRET-based Mfn2 biosensor, 2 h. On the procedure:
To generate FRET-based Mfn2 biosensor construct, pcDNA3.1-Flag-Mfn2 (5′Flag epitope cassette onto human Mfn2) was used as backbone, and mCerulean (cyan fluorescent protein; CFP) was fused onto 5′ of Mfn2 and mVenus (yellow fluorescent protein; YFP) onto 3′ of ORF of Mfn2 (20-22). […] Then, the mVenus fragment was fused into pcDNA3.1-Cerulean1-Mfn2 to generate pcDNA3.1-Cerulean1-Mfn2-mVenus with mega-mutagenesis PCR using mVenus fragment as mega primer. PCR conditions: lx 95° C. 10 min; 15×(95° C. 30 sec, […], 68° C. 18 min); 1×72° C. 10 min. The construct was confirmed by sequencing.
Cells were transfected with the total amount of 2.5 μg of DNA per well for the indicated Mfn2 FRET constructs using Lipofectamine® 3000 Reagent (Invitrogen) according to the manufacturer's protocol. The following day, transfected cells were transferred to a pre-coated with poly L-lysine 96-well black plate (2×10^4 cells/well). […] GTPγS (Sigma Aldrich) was used to inhibit GTPase activity of Mfn2. Subsequently, cells were treated for 2 h with MASMs or vehicle (0.1% DMSO). Dilutions of MASMs were performed using a TECAN D300e Digital Dispenser from 10 mM stock solutions. […] Acceptor/Donor ratio referred to the text and figures correspond to the ratio of fluorescence intensities (relative fluorescence units: RFU) detected by the acceptor filter/donor filter. Non-transfected cells were used to subtract background fluorescence from each of the aforementioned filters that were used in the study.
To evaluate the capacity of the selected hits to propel the pro-tethering conformation of Mfn2, a screening assay was developed based on a Forster resonance energy transfer (FRET) biosensor of Mfn2. […] Loss of intra-molecular HR1-HR2 interactions, occurring in the pro-tethering conformation of Mfn2, increase the distance between mCerulean and mVenus and lead to a decrease in the resonance energy that is transferred.
As for `Cc1cc(NC(=O)C(C)SCC(=O)Nc2ccc(NC(C)c3ccccc3)cc2)no1` (centres unmarked) [MASM1], the “% of FRET reduction” value was −5.3%. Turning to `Cc1ccc(C(=O)C(C)Sc2nnc3c(=O)n(-c4ccc(Br)cc4)ccn23)cc1C` (centres unmarked) [MASM2], the “% of FRET reduction” value is given as −0.5%. The same measure, in the same setting: for `Cc1ccc(CSCCNC(=O)C2CCN(c3ccc4nnc(C(F)(F)F)n4n3)CC2)cc1` [MASM3] the value was −14.1%; for `CC(/N=N/C(=N)SC1CC(=O)N(c2cccc(C(=O)O)c2)C1=O)c1ccccc1` (centres unmarked) [MASM4], −8.6%; for `CC(c1cccc([N+](=O)[O-])c1)N(C)CC(=O)NCCSCc1ccccc1C#N` (centres unmarked) [MASM5], 0%. For `CCC(SC1Cc2cc(OC)c(OC)cc2-c2nc(CCn3nc(C)cc3C)nn21)C(=O)Nc1ccc(F)cc1` (centres unmarked) [MASM6], the “% of FRET reduction” value is −0.7%. Same read-out and setting: the figure for `CC(Sc1nc(C2CC2)nc2c1c(=O)[nH]c(=O)n2C1CC1)C(=O)NCC1CCCCC1` (centres unmarked) [MASM8] is 1.2%. Turning to `COc1ccc2c(c1)C1(SCCN1C(=O)c1ccccc1C)C(=O)N2Cc1cccc(C(F)(F)F)c1` (centres unmarked) [MASM9], the “% of FRET reduction” value is on record as 1.1%. Still for that read-out and setting: the figure for `O=C(CSCc1ccc(F)cc1)N1CCc2c([nH]c3ccccc23)C1c1ccc(Cl)cc1` (centres unmarked) [MASM11] is 1.97%. As for `c1ccc(CSCCc2nc(C3CCOC3)no2)cc1` (centres unmarked) [MASM12], the “% of FRET reduction” value is −4.5%. `CC(=O)NC12CC3CC(C1)CC(C(=O)NCCSCc1ccc(C)cc1)(C3)C2` [MASM13]: the “% of FRET reduction” value was −4.6%. For `CCC(C)NC(=O)c1ccccc1NC(=O)C(C)Sc1ccc(C)cc1` (centres unmarked) [MASM14], the “% of FRET reduction” value was −10%.

For the compound `S=C(NCCSCc1ccco1)NC1CC2CCC1C2` (centres unmarked) [MASM15], the “% of FRET reduction” value is recorded as −3.6%. `O=C(NCCSCc1ccccc1)C1CCCCO1` (centres unmarked) [MASM16]: the “% of FRET reduction” value is recorded as −11.2%. On the same count and under the same terms, the figure for `Cc1ccc(NC(=O)CC2SC(CC(c3ccc(C(C)C)cc3)c3c(O)[nH]c(=O)[nH]c3=O)=NC2=O)c(C)c1` (centres unmarked) [MASM17] is −5.9%; for `COc1ccc(SC(C)C(=O)Nc2cc[nH]n2)cc1` (centres unmarked) [MASM18] it is −5.8%; for `CC(Sc1nnc(C2CC2)n1-c1ccccc1)C(=O)NC(N)=O` (centres unmarked) [MASM19] it is 2.7%. With `CC(Sc1nnc(-c2ccccc2)n1-c1ccccc1)C(=O)Nc1sc2c(c1C(N)=O)CCC2` (centres unmarked) [MASM20], the “% of FRET reduction” value stood at 10.1%. The same measure, in the same setting: for `NC(=O)c1c(NC(=O)CSc2nnc(C3CC3)n2-c2ccccc2)sc2c1CCC2` [MASM21] the value was 27.1%. Same read-out and setting: the figure for `CC(Sc1nnc(-c2ccco2)n1-c1ccccc1)C(=O)Nc1sc2c(c1C(N)=O)CCC2` (centres unmarked) [MASM22] is 31.7%; for `Cc1ccc(-c2nnc(SC(C)C(=O)Nc3sc4c(c3C(N)=O)CCC4)n2-c2ccccc2)o1` (centres unmarked) [MASM23] it is 13.9%. The same measure, in the same setting: the figure for `CC1CCc2c(sc(NC(=O)CSc3nnc(C4CC4)n3-c3ccccc3)c2C(N)=O)C1` (centres unmarked) [MASM24] is 18.9%; for `CC(Sc1nnc(C2CC2)n1Cc1ccccc1)C(=O)Nc1sc2c(c1C(N)=O)CCC2` (centres unmarked) [MASM25] it is 32.2%; for `Cc1nnc(SCC(=O)Nc2sc3c(c2C(N)=O)CCC3)n1-c1ccccc1` [MASM26] it is 37.0%.

In the case of `Cc1ccccc1-n1c(SCC(=O)Nc2sc3c(c2C(N)=O)CCC3)nnc1-c1ccncc1` [MASM27], the “% of FRET reduction” value worked out at 30.0%. On the same count and under the same terms, for `CC(Sc1nnc(C2CC2)n1-c1ccccc1)C(=O)Nc1sc2c(c1C#N)CCCCC2` (centres unmarked) [MASM28] the value was 8.0%. With `CC(Sc1nncn1-c1ccccc1)C(=O)Nc1sc2c(c1C(N)=O)CCC2` (centres unmarked) [MASM29], the “% of FRET reduction” value was determined as 16.5%. Same read-out and setting: for `C=CCn1c(SCC(=O)Nc2sc3c(c2C(N)=O)CCC3)nnc1C1CCCCC1` [MASM30] the value was 17.7%; for `CC(Sc1nnc(Cc2cccs2)n1C1CC1)C(=O)Nc1sc2c(c1C(N)=O)CCC2` (centres unmarked) [MASM31], 30.7%; for `NC(=O)c1c(NC(=O)CSc2nc(C3CC3)n(-c3ccccc3)n2)sc2c1CCC2` [MASM32], 37.0%. On to `CC(c1nnc(SCC(=O)Nc2sc3c(c2C(N)=O)CCC3)n1-c1ccc(F)cc1)N(C)C` (centres unmarked) [MASM33], for which the “% of FRET reduction” value is 31.9%. In the case of `CC(Sc1nnc2c(Cl)cc(C(F)(F)F)cn12)C(=O)Nc1sc2c(c1C(N)=O)CCC2` (centres unmarked) [MASM34], the “% of FRET reduction” value is on record as 19.4%. The same measure, in the same setting: the figure for `CC(Sc1nnc(Cc2ccccc2)n1C)C(=O)Nc1sc2c(c1C(N)=O)CCC2` (centres unmarked) [MASM35] is 25.9%; for `CC(Sc1nnc(-c2cccs2)n1-c1ccccc1)C(=O)Nc1sc2c(c1C(N)=O)CCC2` (centres unmarked) [MASM36] it is 11.1%. `CC(Sc1nccn1Cc1ccccc1)C(=O)Nc1sc2c(c1C(N)=O)CCC2` (centres unmarked) [MASM37]: the “% of FRET reduction” value was 21.0%. As to `CCn1c(Cc2ccccc2)nnc1SC(C)C(=O)Nc1sc2c(c1C(N)=O)CCC2` (centres unmarked) [MASM38], the “% of FRET reduction” value is on record as 9.9%.

As for `CC(Sc1nnc(-c2ccco2)n1C1CCCCC1)C(=O)Nc1sc2c(c1C(N)=O)CCC2` (centres unmarked) [MASM39], the “% of FRET reduction” value is on record as 9.9%. Consider `CC(Sc1nnnn1-c1ccc(O)cc1)C(=O)Nc1sc2c(c1C(N)=O)CCC2` (centres unmarked) [MASM40], for which the “% of FRET reduction” value is recorded as 22.6%. As for `CC(Sc1nccn1-c1cccc(F)c1)C(=O)Nc1sc2c(c1C(N)=O)CCC2` (centres unmarked) [MASM41], the “% of FRET reduction” value was 10.2%.

Regarding `CC(C)Cn1c(SC(C)C(=O)Nc2sc3c(c2C(N)=O)CCC3)nnc1N1CCOCC1` (centres unmarked) [MASM42], the “% of FRET reduction” value is given as −1.4%. On the same count and under the same terms, the figure for `NC(=O)c1c(NC(=O)CSc2nnc(C3CC3)n2Cc2ccccc2)sc2c1CCC2` [MASM43] is 14.8%. Same read-out and setting: the figure for `Cn1c(SCC(=O)Nc2sc3c(c2C(N)=O)CCCC3)nnc1C1CC1` [MASM44] is 23.3%.

In the case of `CC(Sc1nnnn1C1CC1)C(=O)Nc1sc2c(c1C(N)=O)CCC2` (centres unmarked) [MASM45], the “% of FRET reduction” value is reported as 26.4%.
